Laboratory results from ChEMBL document CHEMBL3763135, “Synthesis and evaluation of thiophene-based guanylhydrazones (iminoguanidines) efficient against panel of voriconazole-resistant fungal isolates” (Bioorg Med Chem, 2016).
Active and inactive are the calls of the source. No cut-off for these calls is given here.

Legend:
[1] = organism: Danio rerio; assay: Toxicity against zebrafish embryo assessed as effect on eyes at 5 ug/ml measured at 96 hrs post fertilization by inverted microscopic analysis; type: organism-based; settings: in vivo
[2] = organism: Danio rerio; assay: Toxicity against zebrafish embryo assessed as effect on notochord at 10 ug/ml measured at 96 hrs post fertilization by inverted microscopic analysis; type: organism-based; settings: in vivo
[3] = organism: Danio rerio; assay: Toxicity against zebrafish embryo assessed as skeletal deformities at 2.5 ug/ml measured at 96 hrs post fertilization by inverted microscopic analysis; type: organism-based; settings: in vivo
[4] = organism: Danio rerio; assay: Toxicity against zebrafish embryo assessed as effect on eyes at 10 ug/ml measured at 96 hrs post fertilization by inverted microscopic analysis; type: organism-based; settings: in vivo
[5] = test system: Danio rerio; assay: Toxicity against zebrafish embryo assessed as pericardial edema at 10 ug/ml measured at 96 hrs post fertilization by inverted microscopic analysis; type: organism-based; settings: in vivo
[6] = organism: Danio rerio; assay: Toxicity against zebrafish embryo assessed as teratogenic embryos at 5 ug/ml measured at 96 hrs post fertilization by inverted microscopic analysis; type: organism-based; settings: in vivo
[7] = organism: Danio rerio; assay: Toxicity against zebrafish embryo assessed as effect on eyes at 2.5 ug/ml measured at 96 hrs post fertilization by inverted microscopic analysis; type: organism-based; settings: in vivo
[8] = test system: Danio rerio; assay: Toxicity against zebrafish embryo assessed as pericardial edema at 2.5 ug/ml measured at 96 hrs post fertilization by inverted microscopic analysis; type: organism-based; settings: in vivo
[9] = organism: Danio rerio; assay: Toxicity against zebrafish embryo assessed as normal embryos at 10 ug/ml measured at 96 hrs post fertilization by inverted microscopic analysis; type: organism-based; settings: in vivo
[10] = test system: Candida parapsilosis; assay: Antibiofilm activity against Candida parapsilosis C27 assessed as disruption of preformed biofilm after 24 hrs by concanavalin A-FITC-staining based fluorescence microscopic analysis; type: functional
[11] = test system: Pichia kudriavzevii; assay: Antifungal activity against Candida krusei ATCC 34135 by broth dilution method; type: functional
[12] = organism: Danio rerio; assay: Toxicity against zebrafish embryo assessed as effect on blood circulation at 2.5 ug/ml measured at 96 hrs post fertilization by inverted microscopic analysis; type: organism-based; settings: in vivo
[13] = organism: Danio rerio; assay: Toxicity against zebrafish embryo assessed as unhatched embryos at 2.5 ug/ml measured at 96 hrs post fertilization by inverted microscopic analysis; type: organism-based; settings: in vivo
[14] = Toxicity against zebrafish embryo assessed as dead embryos at 50 ug/ml measured at 96 hrs post fertilization by inverted microscopic analysis; type: organism-based, Danio rerio; settings: read-out: Activity
[15] = Toxicity against zebrafish embryo assessed as dead embryos at 25 ug/ml measured at 96 hrs post fertilization by inverted microscopic analysis; type: organism-based, Danio rerio; settings: read-out: Activity
[16] = test system: Candida albicans; assay: Antifungal activity against Candida albicans CA5 by broth dilution method; type: functional
[17] = organism: Danio rerio; assay: Toxicity against zebrafish embryo assessed as effect on blood circulation at 10 ug/ml measured at 96 hrs post fertilization by inverted microscopic analysis; type: organism-based; settings: in vivo
[18] = test system: Candida parapsilosis; assay: Antifungal activity against Candida parapsilosis C27 by broth dilution method; type: functional; settings: Lodderomyces parapsilosis
[19] = Induction of membrane damage in PC/PS/E liposome assessed as calcein release at MIC after 30 mins by fluorescence-based liposome leakage assay; type: functional
[20] = test system: Danio rerio; assay: Toxicity against zebrafish embryo assessed as yolk edema at 2.5 ug/ml measured at 96 hrs post fertilization by inverted microscopic analysis; type: organism-based; settings: in vivo
[21] = organism: Danio rerio; assay: Toxicity against zebrafish embryo assessed as effect on otoliths at 10 ug/ml measured at 96 hrs post fertilization by inverted microscopic analysis; type: organism-based; settings: in vivo
[22] = test system: Candida albicans; assay: Induction of DNA intercalation with Candida albicans genomic DNA at 25 ug/ml after 12 hrs by ethidium bromide staining based gel electrophoresis method
[23] = organism: Danio rerio; assay: Toxicity against zebrafish embryo assessed as unhatched embryos at 5 ug/ml measured at 96 hrs post fertilization by inverted microscopic analysis; type: organism-based; settings: in vivo
[24] = test system: Fusarium oxysporum; assay: Antifungal activity against Fusarium oxysporum AB18 by broth dilution method; type: functional
[25] = organism: Danio rerio; assay: Toxicity against zebrafish embryo assessed as effect on tail tip at 10 ug/ml measured at 96 hrs post fertilization by inverted microscopic analysis; type: organism-based; settings: in vivo
[26] = organism: Danio rerio; assay: Toxicity against zebrafish embryo assessed as effect on tail tip at 2.5 ug/ml measured at 96 hrs post fertilization by inverted microscopic analysis; type: organism-based; settings: in vivo
[27] = test system: Danio rerio; assay: Toxicity against zebrafish embryo assessed as pericardial edema at 5 ug/ml measured at 96 hrs post fertilization by inverted microscopic analysis; type: organism-based; settings: in vivo
[28] = test system: Candida albicans; assay: Antifungal activity against Candida albicans ATCC 10231 by broth dilution method; type: functional
[29] = test system: Danio rerio; assay: Toxicity against zebrafish embryo assessed as yolk edema at 10 ug/ml measured at 96 hrs post fertilization by inverted microscopic analysis; type: organism-based; settings: in vivo
[30] = Toxicity against zebrafish embryo assessed as dead embryos at 5 ug/ml measured at 96 hrs post fertilization by inverted microscopic analysis; type: organism-based, Danio rerio; settings: read-out: Activity
[31] = organism: Danio rerio; assay: Toxicity against zebrafish embryo assessed as normal embryos at 25 ug/ml measured at 96 hrs post fertilization by inverted microscopic analysis; type: organism-based; settings: in vivo
[32] = test system: Danio rerio; assay: Toxicity against zebrafish embryo assessed as yolk edema at 5 ug/ml measured at 96 hrs post fertilization by inverted microscopic analysis; type: organism-based; settings: in vivo
[33] = test system: Trichophyton mentagrophytes; assay: Antifungal activity against Trichophyton mentagrophytes DMT4 by broth dilution method; type: functional
[34] = test system: Microsporum canis; assay: Antifungal activity against Microsporum canis DMT2 by broth dilution method; type: functional
[35] = organism: Danio rerio; assay: Toxicity against zebrafish embryo assessed as skeletal deformities at 10 ug/ml measured at 96 hrs post fertilization by inverted microscopic analysis; type: organism-based; settings: in vivo
[36] = organism: Danio rerio; assay: Toxicity against zebrafish embryo assessed as teratogenic embryos at 50 ug/ml measured at 96 hrs post fertilization by inverted microscopic analysis; type: organism-based; settings: in vivo
[37] = organism: Danio rerio; assay: Toxicity against zebrafish embryo assessed as normal embryos at 50 ug/ml measured at 96 hrs post fertilization by inverted microscopic analysis; type: organism-based; settings: in vivo
[38] = organism: Danio rerio; assay: Toxicity against zebrafish embryo assessed as growth retardation at 5 ug/ml measured at 96 hrs post fertilization by inverted microscopic analysis; type: organism-based; settings: in vivo
[39] = organism: Danio rerio; assay: Toxicity against zebrafish embryo assessed as teratogenic embryos at 2.5 ug/ml measured at 96 hrs post fertilization by inverted microscopic analysis; type: organism-based; settings: in vivo
[40] = organism: Danio rerio; assay: Toxicity against zebrafish embryo assessed as skeletal deformities at 5 ug/ml measured at 96 hrs post fertilization by inverted microscopic analysis; type: organism-based; settings: in vivo
[41] = organism: Danio rerio; assay: Toxicity against zebrafish embryo assessed as head malformation at 5 ug/ml measured at 96 hrs post fertilization by inverted microscopic analysis; type: organism-based; settings: in vivo
[42] = test system: Candida albicans; assay: Antibiofilm activity against Candida albicans ATCC 10231 assessed as disruption of preformed biofilm after 24 hrs by concanavalin A-FITC-staining based fluorescence microscopic analysis; type: functional
[43] = organism: Danio rerio; assay: Toxicity against zebrafish embryo assessed as teratogenic embryos at 25 ug/ml measured at 96 hrs post fertilization by inverted microscopic analysis; type: organism-based; settings: in vivo
[44] = organism: Danio rerio; assay: Toxicity against zebrafish embryo assessed as normal embryos at 5 ug/ml measured at 96 hrs post fertilization by inverted microscopic analysis; type: organism-based; settings: in vivo
[45] = organism: Danio rerio; assay: Toxicity against zebrafish embryo assessed as teratogenic embryos at 10 ug/ml measured at 96 hrs post fertilization by inverted microscopic analysis; type: organism-based; settings: in vivo
[46] = organism: Danio rerio; assay: Toxicity against zebrafish embryo assessed as effect on heart beat at 2.5 ug/ml measured at 96 hrs post fertilization by inverted microscopic analysis; type: organism-based; settings: in vivo
[47] = organism: Danio rerio; assay: Toxicity against zebrafish embryo assessed as unhatched embryos at 10 ug/ml measured at 96 hrs post fertilization by inverted microscopic analysis; type: organism-based; settings: in vivo
[48] = organism: Danio rerio; assay: Toxicity against zebrafish embryo assessed as effect on heart beat at 10 ug/ml measured at 96 hrs post fertilization by inverted microscopic analysis; type: organism-based; settings: in vivo

In the case of Cl.N=C(N)N/N=C/c1ccc(-c2ccc(Br)cc2)s1, the Activity [1] is reported as 0%, the Activity [2] is reported as 0% and the Activity [3] is reported as 0%. The Activity [4] was 0%, the Activity [5] was 33.33% and the Activity [6] was 10%. It also gave an Activity [7] of 0%, an Activity [8] of 0% and an Activity [9] of 46.67%. The MBEC [10] was 125 µg/mL, the MIC [11] was 1.56 µg/mL and the Activity [12] was 0%. It also gave an Activity [13] of 0%, a mortality at 96 h, 50 ug/ml [14] of 100% and a mortality at 96 h, 25 ug/ml [15] of 73.3%. The MIC [16] was 1.56 µg/mL, the Activity [17] was 0% and the MIC [18] was 3.9 µg/mL. It also gave an Activity [19] of 7%, an Activity [20] of 0% and an Activity [21] of 0%. For the same compound, the Activity [22] was “Active”, the Activity [23] was 0% and the MIC [24] was 3.9 µg/mL. For the same compound, the Activity [25] was 0%, the Activity [26] was 0% and the Activity [27] was 11.11%. It also gave an MIC [28] of 3.12 µg/mL, an Activity [29] of 0% and a mortality at 96 h, 5 ug/ml [30] of 10%. For the same compound, the Activity [31] was 0%, the Activity [32] was 0% and the MIC [33] was 0.97 µg/mL. The MIC [34] was 0.25 µg/mL, the Activity [35] was 0% and the Activity [36] was 0%. The Activity [37] was 0%, the Activity [38] was 0% and the Activity [39] was 0%. For the same compound, the Activity [40] was 0%, the Activity [41] was 0% and the MBEC [42] was 125 µg/mL. It also gave an Activity [43] of 26.67%, an Activity [44] of 80% and an Activity [45] of 23.33%. The Activity [46] was 0%, the Activity [47] was 0% and the Activity [48] was 0%.
